Laboratory results as given in ChEMBL document CHEMBL3507680, “University of Dundee, Gates Library screen for HepG2 cell viability”.

Assay: Human HepG2 cell viability assay in 384 well format
Assay type: toxicity, cell-based
Design: dose 125 nL, time 70.5 hour; cytotoxicity at 70.5 h: concentration not given beside the values
Details: HepG2 cells, read-out: Inhibition

SMILES | cytotoxicity at 70.5 h [%]
Cc1cccc2cc(C(=O)N3CCC(F)(F)CC3)n(C)c12 | 32.7
O=C1CCC2(CCNCC2)CN1CCCOc1cccnc1 | -1.48
CCOCCn1c(=O)[nH]c2cc(C(=O)N(C)Cc3nc(C)c[nH]3)ccc21 | -5.85
COCCN1CCN(Cc2ccc3nsnc3c2)[C@H]2CS(=O)(=O)C[C@H]21 | -5.97
CCOc1ccc2nc(CN3CCC(CNC(C)=O)C3)ccc2c1 (configuration not stated) | 1.6
COc1ccc(/C=C/CN2CCN(c3ncccc3C(N)=O)CC2)cc1 | -1.81
N#Cc1cc2n(n1)CCN(C(=O)CCc1c[nH]c3ccccc13)C2 | -10.2
CN(Cc1cnn(C)c1)C(=O)C1COc2ccccc2C1 (configuration not stated) | -5.03
CN1CCN2CCN(C(=O)c3cnn4cc(CCO)cnc34)CC2C1 (configuration not stated) | -8.48
CCn1ccnc1CN(C)c1cc(OC)ncn1 | -8.04
Cc1cc(C)c2nc(CNCCNS(C)(=O)=O)cc(O)c2c1 | -2.21
Cn1cc2ncn(CCC3CCN(Cc4ccccc4)C3)c(=O)c2n1 (configuration not stated) | -7
CC(=O)Cc1c(C)nn(-c2cncc(C(N)=O)c2)c1C | -9.56
CSCC[C@H](NC(C)=O)c1nc(CC(C)C)n[nH]1 | 7.09
CCOCCC(=O)NCC1COc2c(cccc2OC)C1 (configuration not stated) | -4.38
Cc1noc(C)c1CN(C)C(=O)c1cnc(C2CC2)nc1O | 8.69
CCC(C(=O)NC1CCCCC1)n1ccc2ncccc2c1=O (configuration not stated) | -11.8
O=C(Nc1ccccc1-c1ccccc1)N1C[C@@H]2CNC[C@]2(C(=O)O)C1 | -2.53
CCC(CO)N(Cc1ccsc1)Cc1c(C)nn(C)c1Cl (configuration not stated) | -5.33
Cc1cc(CN[C@H](C(N)=O)[C@@H](C)O)c(C)s1 | -3.69
O=C(O)CC1COCCN1C(=O)C1(c2ccc(Cl)cc2)CCC1 (configuration not stated) | 5.66
CCC(=O)N1CCN(C(=O)c2ccc(COC)o2)[C@H]2CS(=O)(=O)C[C@H]21 | -5.66
CC1CCCCN1C1CN(C(=O)c2sccc2S(N)(=O)=O)C1 (configuration not stated) | -2.85

SMILES | cytotoxicity at 70.5 h [%]
CC(C)c1cc(C(=O)N2CCCC(Cn3cc(CO)nn3)C2)on1 (configuration not stated) | -2.32
CN(CCCc1nccn1C)c1nccc(-c2cc(C(=O)O)ccn2)n1 | -3.33
CN1CCc2[nH]nc(C(=O)N3CCCC4(CN(C)C(=O)O4)C3)c2C1 (configuration not stated) | -6.4
O=C(NCCc1c[nH]cn1)C1CCCN(C2CCOCC2)C1 (configuration not stated) | -5.69
CCN(CC)C(CNCc1ccc(C)o1)c1ccco1 (configuration not stated) | -11.7
Cc1nnsc1CN1C[C@H]2CC[C@@H]1CN(Cc1ccc(F)cc1)C2 | 27.1
CN(Cc1ccccc1)C1(C(=O)NCC(N)=O)Cc2ccccc2C1 | 5.7
O=C1NC(C(=O)NCc2cccnc2Oc2ccc(F)c(F)c2)CO1 (configuration not stated) | -21.4
COc1cc2c(cc1-c1nc3c(cnn3C)[nH]1)OCO2 | 12.3
Cc1nc(N(C)C)nc(NCCc2ccccn2)c1C | -9.09
CCC(=O)N1CCN(C(=O)Nc2cccc(F)c2)[C@H]2CS(=O)(=O)C[C@H]21 | -2.91
CCOCC1CCN(C(=O)C(c2ccc(F)cc2)N(C)C)CC1 (configuration not stated) | -8
Nc1nc(CCCNC(=O)c2ccccc2C2CCNC2)cs1 (configuration not stated) | -20.9
COc1cccc([C@H]2CN(C(=O)c3nnc4n3CCCC4)C[C@@H]2N)c1 | -3.91
CC(C)C1CN(Cc2cnc(N(C)C)nc2)CCCN1CC1CC1 (configuration not stated) | -10
CCSc1ncc(-c2cc(C3CC3)nc(N)c2C#N)cn1 | -4.52
c1cn(CCc2c[nH]cn2)c(-c2cc(CN3CCCC3)cs2)n1 | -9.06
COCCC1(CO)CCCN(C(=O)c2cccnc2O)C1 (configuration not stated) | -3.89
CNS(=O)(=O)c1ccc(CN2CCC(c3ccncc3)CC2)cc1 | -14.4
Cc1ccc(CN2CCN(C3CCC3)CC2CCO)o1 (configuration not stated) | -10.1
CCN(C)C(=O)c1cccc(S(=O)(=O)NCCc2csc(N)n2)c1 | 19.2
O=C1C[C@H]2CC[C@@H](CN1)N2C(=O)CCc1ccccc1 | -8.36
CCN(CC)CCn1cnc(-c2ccccc2)c1-c1cnc(C)s1 | -7.41

SMILES | cytotoxicity at 70.5 h [%]
CC(C)=CCC/C(C)=C/CN1CCN(C)C2(CCNC(=O)CC2)C1 (configuration not stated) | -9.38
CN(C)c1ccc(-c2cccc(-c3ccn(CCCO)n3)c2)nn1 | -3.34
CCCSc1ncc(C2CC(=O)NCc3nc4ccccn4c32)cn1 (configuration not stated) | -3.19
CC(C)c1nccc(CN2CCCC(O)(CN(C)C)CC2)n1 (configuration not stated) | -7.74
CCN1CC(C(=O)NCCc2csc(-c3ccncc3)n2)CC1=O (configuration not stated) | -4.27
COC(=O)c1cccc(-c2nc(CC3CCN(C)CC3)no2)c1 | -3.78
Cn1cc(CN2CCCN(CCCc3ccccc3)CC2)cn1 | -15.4
CC(C)n1ccnc1Cn1ccc2ncccc2c1=O | -0.693
CC(C)C1CN(S(=O)(=O)N2CCCC2)CCCN1Cc1ccc(F)cc1 (configuration not stated) | -3.07
COc1nc2c(cc1C(=O)N(C)Cc1[nH]nc3c1CCC3)CCC2 | 27.9
COCc1cc(NCc2cccnc2Oc2ccc(C)nc2)ncn1 | -12.4
CC(C)[C@@H]1CN(C(=O)NCCc2ccccc2)C[C@H]1NS(=O)(=O)N(C)C | 2.29
Cc1ccccc1N1CCN(C(=O)CSc2ccncc2)CC1=O | -8.48
N#Cc1cccc(C(=O)N2C[C@H]3CC[C@@H]2CN(C(=O)C2CCC2)C3)c1 | -4.08
CCNc1ncc(CN2CCOC(Cc3cccc(OC)c3)C2)cn1 (configuration not stated) | -2.81
NCCC1CN(Cc2cnc3c(-c4ccccc4)cnn3c2)CCO1 (configuration not stated) | -2.68
CCN1CCC[C@@H]1CNC(=O)c1cc(COc2ccccc2)[nH]n1 | -1.42
O=C(O)c1ccc(C2CCCN(Cc3ccc(-c4cc[nH]n4)o3)C2)cc1 (configuration not stated) | 16.9
c1cc(CNc2ccc(-c3nc(C4CC4)no3)cn2)no1 | -8.43
CCN1CCC(N[C@@H]2CC[C@@H]2NC(=O)Cc2csc(C)n2)CC1 | -1.08
O=C(CN1CCOCC1)N(c1ccccc1)c1ccccc1 | -11.2
CNCc1cn(C2CCN(CCC(C)c3ccccc3)CC2)nn1 (configuration not stated) | 21.7
Cn1ncc2c(N3CC[C@H](O)C3)nc(-c3ccncc3)nc21 | -15.7

SMILES | cytotoxicity at 70.5 h [%]
O=C(CC[C@@H]1CCCN2CCCC[C@H]12)NCCc1nc(O)cc(O)n1 | -5.7
CC(Nc1ncnc2c1CCNC2)c1ccc2c(c1)CCCC2 (configuration not stated) | -2.47
CCCn1nc(C)c(CNS(=O)(=O)NCc2ccccc2)c1C | -12.7
CC(C)CCN1CC2(CCCN(C(=O)NCc3cccs3)C2)CCC1=O (configuration not stated) | -2.43
COc1ccc(OCCCN(C)C(=O)C2CCCN2C(N)=O)cc1 (configuration not stated) | -3.9
COc1cccc(OC2CN(C(=O)CCn3cnnn3)C2)c1 | -10.5
CC1CCCCN1C1CN(c2ccnc(C(=O)NCc3ccco3)c2)C1 (configuration not stated) | -15.4
CCCn1c(C)c(CC(=O)NCC(N)=O)c2c1CC(C)(C)CC2=O | 0.554
O=C(Cc1c[nH]c(=O)[nH]c1=O)N1CCCCC1CCc1cccc(O)c1 (configuration not stated) | -5.29
CCCN(Cc1cnc2ccccc2n1)Cc1ccccc1OC | -7.09
COc1ccc(S(=O)(=O)N[C@H]2CN(C(C)=O)C[C@@H]2C2CC2)cc1C | -14.2
COc1ccc(-c2nc3c([nH]2)CCNC3)c(OC)c1OC | 1.85
Cc1cc(CN(C)C(=O)CN2CC3(CCNCC3)OC2=O)no1 | -15.9
CCOCCCNCc1cc(O)c2cc(C)ccc2n1 | 22.7
CC(C)c1cc(NC2CCN(C(=O)N3CCCC3)CC2)ncn1 | 12.6
O=C(NCCc1c[nH]cn1)C1CCCN(Cc2ccco2)C1 (configuration not stated) | -1.6
CC(Cc1cn(CCc2nnn[nH]2)nn1)c1ccccc1 (configuration not stated) | -5.17
Cc1ccc(CN(CCCO)Cc2nc3ccccc3[nH]2)s1 | -3.29
CC(=O)c1ccc(C(=O)N2C[C@@H](CN3CCCC3)[C@@H](CO)C2)cc1 | 12.4
CCc1cc(CN(C)Cc2nc(-c3sccc3C)oc2C)on1 | -9.39
CC(C(=O)N1CCC(c2[nH]ncc2-c2ccccc2)CC1)n1cncn1 (configuration not stated) | -9.13
O=C1CCC2(CCCO2)CCN1Cc1noc(C2CCCC2)n1 (configuration not stated) | 0.738
CN1CC(c2ccccc2)CC2(CCN(C(=O)c3cccnn3)CC2)C1 (configuration not stated) | -4.99

SMILES | cytotoxicity at 70.5 h [%]
C[C@H](NC(=O)C1(N(C)Cc2ccccc2)Cc2ccccc2C1)C(N)=O | -2.36
Cc1ccccc1CN1CCN(C(=O)c2cnc(C3CC3)[nH]c2=O)CC1 | 7.92
CSc1ccc(CN(CCO)C(=O)CCOc2ccccc2)cc1 | -7.56
O=C1N(CCCc2ccccc2)CCCC12CCN(C(CO)CO)C2 (configuration not stated) | -4.16
Cc1nonc1OCCNc1ncnc2sc3c(c12)CCNC3 | -3.76
CC(C)=CCN1CC2(CCN(Cc3cccc(C#N)c3)CC2)CC1=O | 8.66
Cc1cc(C)n(-c2ccc(C(=O)NCC(CO)Cc3ccco3)cc2)n1 (configuration not stated) | -7.33
CN1CCN(Cc2nc3c(s2)CCCC3)[C@H]2CS(=O)(=O)C[C@H]21 | 1.26
O=c1[nH]c(COc2cccc(F)c2)nc2c1CCNC2 | -17
O=C(N[C@@H]1CCN(Cc2cc3ccccc3s2)C[C@H]1O)c1cccnc1 | -3.4
CN(C)S(=O)(=O)NCc1cccnc1Oc1ccccc1 | -6.53
c1ccc(CN2CCC(CNc3ncnc4c3CCNCC4)CC2)cc1 | 0.757
CN(C)CCCN1CC2(CCN(C(=O)C3(C)CCCCO3)CC2)OC1=O (configuration not stated) | 17.7
Cc1cccnc1NCCNC(=O)C1CCN(Cc2ccco2)CC1 | 9.3
CN1CCC2(CC1)CN(Cc1ccc(C3CCCCO3)o1)CCCN2C (configuration not stated) | -4.97
CC(C)c1cc(C(=O)N(Cc2ccncc2)CC2CCCO2)no1 (configuration not stated) | -6.68
Cc1cc(NCCCNc2cccnc2)n2nc(C)c(C)c2n1 | -10.7
OCC1(CC2CC2)CCCN(Cc2cnc(N3CCOCC3)nc2)C1 (configuration not stated) | -5.42
CCc1nc(C)cc(NC(C)C(=O)Nc2cc(F)ccc2C)n1 (configuration not stated) | -15.5
CCc1cc(C(=O)N2CCC(C3CCN(c4ncccn4)CC3)C2)on1 (configuration not stated) | 2.57
